Test results taken from US20180194762A1 (Pharmacyclics LLC, priority 2017, published 2018).
Read-outs that look alike come from different tables or passages of the source.

Tests used:
Type in all cases: biochemical
[1] = target: T1, Btk (Homo sapiens, UniProt Q06187); assay: Btk in vitro inhibitory activity (one of Method A TR-FRET, Method B electrophoretic mobility shift, Method C radiometric filter binding)
T1 construct: purified from insect cells as a full-length construct containing a N-terminal 6X-His tag; His6 (N); made in house; host or cells: insect cells (Method C)
T1 sequence (Q06187 whole entry): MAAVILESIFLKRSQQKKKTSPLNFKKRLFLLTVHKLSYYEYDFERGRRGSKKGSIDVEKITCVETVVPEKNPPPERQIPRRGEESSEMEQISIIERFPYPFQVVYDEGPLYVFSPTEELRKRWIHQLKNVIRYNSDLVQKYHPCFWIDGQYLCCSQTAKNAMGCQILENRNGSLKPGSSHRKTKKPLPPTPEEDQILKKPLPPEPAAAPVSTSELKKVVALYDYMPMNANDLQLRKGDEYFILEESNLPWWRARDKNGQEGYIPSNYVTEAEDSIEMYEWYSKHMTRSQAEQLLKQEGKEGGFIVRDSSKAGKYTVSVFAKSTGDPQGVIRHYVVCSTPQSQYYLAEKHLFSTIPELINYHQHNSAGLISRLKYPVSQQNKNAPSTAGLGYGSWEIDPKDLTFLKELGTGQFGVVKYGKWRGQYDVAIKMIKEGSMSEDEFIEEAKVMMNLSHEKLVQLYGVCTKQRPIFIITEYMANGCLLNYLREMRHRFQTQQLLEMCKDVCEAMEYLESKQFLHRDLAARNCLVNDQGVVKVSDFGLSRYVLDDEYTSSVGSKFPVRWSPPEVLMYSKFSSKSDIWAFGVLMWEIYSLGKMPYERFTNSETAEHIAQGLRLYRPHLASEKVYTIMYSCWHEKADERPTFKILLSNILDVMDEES
How it was run: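 Method A: TR-FRET with 0.5 nM Btk at [ATP]=Km, EDTA-quenched, 665/615 nm ratio; Ki(app) converted to IC50. Method B: 1 nM full-length His6 human BTK, 1 μM FAM peptide, pH 7.5, mobility-shift product/sum ratio, 12-point 4-parameter fit. Method C: radiometric filter binding, 8 nM His-tagged BTK, 0.2 mg/mL poly-Glu-Tyr.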

[2] = target: T2, panel of kinases (Homo sapiens, UniProt P51813); assay: Inhibition of a panel of kinases (in vitro HotSpot kinase assay, 33P-ATP, 1 μM ATP), other kinases; details: BMX wild-type, read-out: BMX-WT IC50
T2 sequence (P51813 1-675): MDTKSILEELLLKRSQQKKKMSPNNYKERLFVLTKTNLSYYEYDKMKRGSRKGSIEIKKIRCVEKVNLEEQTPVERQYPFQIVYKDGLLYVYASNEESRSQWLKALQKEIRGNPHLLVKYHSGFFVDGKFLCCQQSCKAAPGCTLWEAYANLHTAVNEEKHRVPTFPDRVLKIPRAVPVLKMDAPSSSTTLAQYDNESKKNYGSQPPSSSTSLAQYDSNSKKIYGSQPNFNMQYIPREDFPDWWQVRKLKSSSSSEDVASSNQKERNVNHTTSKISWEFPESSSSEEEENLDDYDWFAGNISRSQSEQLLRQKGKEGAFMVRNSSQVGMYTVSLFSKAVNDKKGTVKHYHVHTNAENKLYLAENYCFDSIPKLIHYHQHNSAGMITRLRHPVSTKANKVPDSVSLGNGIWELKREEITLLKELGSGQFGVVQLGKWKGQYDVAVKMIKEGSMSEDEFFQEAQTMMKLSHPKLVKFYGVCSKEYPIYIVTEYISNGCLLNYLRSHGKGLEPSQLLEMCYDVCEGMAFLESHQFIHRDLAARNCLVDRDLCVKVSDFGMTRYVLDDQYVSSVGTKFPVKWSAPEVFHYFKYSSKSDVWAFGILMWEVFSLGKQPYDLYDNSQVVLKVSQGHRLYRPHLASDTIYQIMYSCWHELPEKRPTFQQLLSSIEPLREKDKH
How it was run: (§1)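 Purified kinase enzymes were incubated with an appropriate substrate and 33P-labelled ATP at 1 μM ATP. Inhibition was measured radiometrically from incorporation of the 33P label.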

[3] = target: T3, TEC (Homo sapiens, UniProt P42680); assay: Inhibition of a panel of kinases (in vitro HotSpot kinase assay, 33P-ATP, 1 μM ATP); details: for IC50: HotSpot kinase assay, 1 μM ATP; for TEC/Btk: ratio of TEC IC50 to Btk IC50 (selectivity)
T3 sequence (P42680 1-631): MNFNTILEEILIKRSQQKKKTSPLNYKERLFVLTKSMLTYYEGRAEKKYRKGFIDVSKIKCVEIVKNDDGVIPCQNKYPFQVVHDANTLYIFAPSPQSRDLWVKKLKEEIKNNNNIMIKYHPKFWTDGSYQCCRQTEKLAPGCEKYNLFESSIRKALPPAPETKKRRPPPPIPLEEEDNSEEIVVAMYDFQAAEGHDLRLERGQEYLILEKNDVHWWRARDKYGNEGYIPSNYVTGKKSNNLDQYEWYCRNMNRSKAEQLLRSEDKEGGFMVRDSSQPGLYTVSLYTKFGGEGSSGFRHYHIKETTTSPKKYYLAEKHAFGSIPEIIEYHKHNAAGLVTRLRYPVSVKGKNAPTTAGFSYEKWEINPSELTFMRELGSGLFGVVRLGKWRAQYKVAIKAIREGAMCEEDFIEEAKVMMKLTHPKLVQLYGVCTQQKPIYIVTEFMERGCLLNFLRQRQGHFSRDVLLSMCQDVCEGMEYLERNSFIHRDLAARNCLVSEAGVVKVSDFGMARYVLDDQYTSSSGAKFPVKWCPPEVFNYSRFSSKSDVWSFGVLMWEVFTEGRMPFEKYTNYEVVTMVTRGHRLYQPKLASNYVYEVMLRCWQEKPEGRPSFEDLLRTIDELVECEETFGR
How it was run: as §1

[4] = method is one of A, B or C, not stated which, read-out: IC50 values against Btk
[5] = wild-type Btk, read-out: Btk-WT IC50

IC50 [1, 4] [nM]	IC50 [1, 5] [nM]	IC50 [2] [nM]	IC50 [3] [nM]	TEC/Btk [3]	SMILES
< 10	0.189	201	55	289	C=CC(=O)N1CC[C@@H](Nc2n[nH]c3nccc(-c4ccc(CNC(=O)c5noc(C(C)(C)C)n5)cc4)c23)C1 [Example 175, 5-tert-butyl-N-{[4-(3-{[(3R)-1-(prop-2-enoyl)pyrrolidin-3-yl]amino}-1H-pyrazolo[3,4-b]pyridin-4-yl)phenyl]methyl}-1,2,4-oxadiazole-3-carboxamide]
< 10	1.49	146	149	100	C=CC(=O)N1CC[C@@H](Nc2n[nH]c3nccc(-c4ccc(CNC(=O)c5cnc(C(C)C)o5)c(F)c4)c23)C1 [Example 176, N-{[2-fluoro-4-(3-{[(3R)-1-(prop-2-enoyl)pyrrolidin-3-yl]amino}-1H-pyrazolo[3,4-b]pyridin-4-yl)phenyl]methyl}-2-(propan-2-yl)-1,3-oxazole-5-carboxamide]
< 10	3.91	43	99	25	C=CC(=O)N1CC[C@@H](Nc2n[nH]c3nccc(-c4ccc(CNC(=O)c5cnc(N(C)C)o5)c(F)c4)c23)C1 [Example 177, 2-(dimethylamino)-N-{[2-fluoro-4-(3-{[(3R)-1-(prop-2-enoyl)pyrrolidin-3-yl]amino}-1H-pyrazolo[3,4-b]pyridin-4-yl)phenyl]methyl}-1,3-oxazole-5-carboxamide]
< 10	0.0959	305	220	2294	C=CC(=O)NC1CCN(c2n[nH]c3nccc(-c4ccc(CNC(=O)c5nc(C(C)(C)C)no5)c(F)c4)c23)CC1 [Example 179, 3-tert-butyl-N-[(2-fluoro-4-{3-[4-(prop-2-enamido)piperidin-1-yl]-1H-pyrazolo[3,4-b]pyridin-4-yl}phenyl)methyl]-1,2,4-oxadiazole-5-carboxamide]
–	23.8	> 10000	7180	302	CC(C)(C)c1nc(C(=O)NCc2ccc(-c3ccnc4[nH]nc(N[C@@H]5CCNC5)c34)cc2F)co1 [Example 180, 2-tert-butyl-N-{[2-fluoro-4-(3-{[(3R)-pyrrolidin-3-yl]amino}-1H-pyrazolo[3,4-b]pyridin-4-yl)phenyl]methyl}-1,3-oxazole-4-carboxamide]
–	14.5	1320	2610	180	CC(C)c1cc(C(=O)NCc2ccc(-c3ccnc4[nH]nc(N5CC[C@@H](N)C5)c34)cc2F)on1 [Example 182, N-[(4-{3-[(3R)-3-aminopyrrolidin-1-yl]-1H-pyrazolo[3,4-b]pyridin-4-yl}-2-fluorophenyl)methyl]-3-(propan-2-yl)-1,2-oxazole-5-carboxamide]
–	0.0776	30.7	33.4	430	C=CC(=O)N[C@@H]1CCN(c2n[nH]c3nccc(-c4ccc(CNC(=O)c5cc(C(C)C)no5)c(F)c4)c23)C1 [Example 184, N-{[2-fluoro-4-(3-{(3R)-3-[(prop-2-enoyl)amino]pyrrolidin-1-yl}-1H-pyrazolo[3,4-b]pyridin-4-yl)phenyl]methyl}-3-(propan-2-yl)-1,2-oxazole-5-carboxamide]
–	7.43	1560	2240	301	CC(=O)N[C@@H]1CCN(c2n[nH]c3nccc(-c4ccc(CNC(=O)c5cc(C(C)C)no5)c(F)c4)c23)C1 [Example 185, N-[(4-{3-[(3R)-3-acetamidopyrrolidin-1-yl]-1H-pyrazolo[3,4-b]pyridin-4-yl}-2-fluorophenyl)methyl]-3-(propan-2-yl)-1,2-oxazole-5-carboxamide]
–	1.96	3430	1600	816	C[C@H]1CC[C@@H](Nc2n[nH]c3nccc(-c4ccc(CNC(=O)c5nc(C(C)(C)C)no5)c(F)c4)c23)CN1C(=O)n1ccnc1 [Example 196, 3-tert-butyl-N-{[2-fluoro-4-(3-{[(3R,6S)-1-(1H-imidazole-1-carbonyl)-6-methylpiperidin-3-yl]amino}-1H-pyrazolo[3,4-b]pyridin-4-yl)phenyl]methyl}-1,2,4-oxadiazole-5-carboxamide]

The remaining lines, values behind:

SMILES	IC50 [1, 4] [nM]	IC50 [1, 5] [nM]	IC50 [2] [nM]	IC50 [3] [nM]	TEC/Btk [3]
CC(C)(C)c1noc(C(=O)NCc2ccc(-c3ccnc4[nH]nc(N5CCC(N)CC5)c34)cc2F)n1 [Example 178, N-({4-[3-(4-aminopiperidin-1-yl)-1H-pyrazolo[3,4-b]pyridin-4-yl]-2-fluorophenyl}methyl)-3-tert-butyl-1,2,4-oxadiazole-5-carboxamide]	< 10	0.598	1180	722	1207
CC(C)c1noc(C(=O)NCc2ccc(-c3ccnc4[nH]nc(N5CC[C@@H](N)C5)c34)cc2F)n1 [Example 181, N-[(4-{3-[(3R)-3-aminopyrrolidin-1-yl]-1H-pyrazolo[3,4-b]pyridin-4-yl}-2-fluorophenyl)methyl]-3-(propan-2-yl)-1,2,4-oxadiazole-5-carboxamide]	–	6.04	761	1000	166
C[C@@H](NC(=O)c1nc(C(C)(C)C)no1)c1ccc(-c2ccnc3[nH]nc(N4CCC(N)CC4)c23)cc1F [Example 188, N-[(1R)-1-{4-[3-(4-aminopiperidin-1-yl)-1H-pyrazolo[3,4-b]pyridin-4-yl]-2-fluorophenyl}ethyl]-3-tert-butyl-1,2,4-oxadiazole-5-carboxamide]	–	0.267	1520	802	3004
C[C@@H](NC(=O)c1noc(C(C)(C)C)n1)c1ccc(-c2ccnc3[nH]nc(N[C@@H]4CC[C@H](C)N(C(=O)N(C)C)C4)c23)cc1F [Example 191, (2S,5R)-5-{[4-(4-{(1R)-1-[(5-tert-butyl-1,2,4-oxadiazole-3-carbonyl)amino]ethyl}-3-fluorophenyl)-1H-pyrazolo[3,4-b]pyridin-3-yl]amino}-N,N,2-trimethylpiperidine-1-carboxamide]	–	0.329	310	340	1033
C[C@@H](NC(=O)c1cc(C(C)(C)O)on1)c1ccc(-c2ccnc3[nH]nc(N[C@@H]4CC[C@H](C)N(C(=O)N(C)C)C4)c23)cc1F [Example 192, (2S,5R)-5-[(4-{3-fluoro-4-[(1R)-1-{[5-(2-hydroxypropan-2-yl)-1,2-oxazole-3-carbonyl]amino}ethyl]phenyl}-1H-pyrazolo[3,4-b]pyridin-3-yl)amino]-N,N,2-trimethylpiperidine-1-carboxamide]	–	28.6	3130	3010	105
C[C@@H](NC(=O)c1nc(C(C)(C)C)no1)c1ccc(-c2ccnc3[nH]nc(N[C@@H]4CC[C@H](C)N(C(=O)N(C)C)C4)c23)cc1F [Example 193, (2S,5R)-5-{[4-(4-{(1R)-1-[(3-tert-butyl-1,2,4-oxadiazole-5-carbonyl)amino]ethyl}-3-fluorophenyl)-1H-pyrazolo[3,4-b]pyridin-3-yl]amino}-N,N,2-trimethylpiperidine-1-carboxamide]	–	0.355	1040	381	1073
